Results published in US9023853B2, “Janus kinase 2 (JAK2) inhibitor for the treatment of lupus” (Cephalon, Inc., priority 2010, dated 2015).

How the values were obtained:
Type in all cases: in vivo, mouse
MRL/lpr mice = assay: Lymphomegaly, splenomegaly and spleen leukocyte counts in MRL/lpr lupus model; settings: for total spleen leukocyte counts compared to vehicle: p<0.05; for mice without lymphomegaly: vehicle 0%
Description: Six week old lupus-prone, female, MRL/lpr (Jackson Labs, #000485) and non-lupus prone control MRL/MpJ (Jackson Labs, #000486) mice were obtained from Jackson Laboratories (Bar Harbor, Me.) at 6-weeks of age. Spontaneous SLE-prone NZBWF1/J (NZM) (catalog no. 100008) female mice and non-lupus prone (within time from of experiment) NZW/LacJ (catalog no. 001058) female mice were obtained from Jackson Laboratories (Bar Harbor, Me.) at 15-weeks of age. All mice were maintained on a […] light/dark cycle, with food and water available ad libitum. All experimental animal procedures were approved by and in accordance to the regulations of the Institutional Animal Care and Use Committee (IACUC) of Cephalon, Inc; approved IACUC protocol #03-040 and #03-03-041. […] Due to this impaired tolerance mechanism, a percentage of all T and B cells that enter the periphery have a high likelihood of responding to self protein/tissues and thus initiate autoimmunity early in life. The MRL/lpr model mice develop several chronic inflammatory disease-like symptoms that are characteristic of early and late lupus including the generation of anti-nuclear antibodies, arthritis, dermatological manifestations, immunocomplex-mediated glomerulonephritis leading to proteinuria and eventual death. Lesser characterized phenomenon are CNS and cardiac manifestations, both of which are more common in humans. […] Mortality is higher in the females and occurs around 25 weeks of age, renal disease includes glomerulonephritis, glomerular infiltrates, sclerosis and vasculitis. Both splenomegaly and lymphomegaly associated with dermatitis can also be observed. […] Mice were tracked on an individual basis.

plasma cells = assay: Spleen plasma cells by flow cytometry in MRL/lpr mice; settings: 100 mg/kg, p<0.01
Description: Antibodies used for flow cytometry consisted of anti-mouse CD138-APC (eBioscience, San Diego, Calif.), anti-mouse CD19-FITC (eBioscience, San Diego, Calif.), anti-mouse CD38-PE (eBioscience, San Diego, Calif.) and anti-mouse CD45R/B220-Cyc (eBioscience, San Diego, Calif.), Rat IgG1-APC isotype control (eBioscience, San Diego, Calif.), Rat IgG2a-PE isotype control (eBioscience, San Diego, Calif.). All samples were analyzed using an Accuri C6 Flow Cytometer. Complete media was used for all experiments involving the ex vivo culture of splenocytes for all Elispot experiments. Complete media consisted of RPMI1640 (Cellgro, Manassas, Va.), plus 1% Pen-Strep (Cellgro, Manassas, Va.), 1% L-Gln (Cellgro, Manassas, Va.), 1% NEAA (Cellgro, Manassas, Va.), β-ME (Cellgro, Manassas, Va.), plus 10% FBS (Cellgro, Manassas, Va.).
Washed, RBC-lysed splenocytes were stained for plasma cell markers as previously used in published reports (Neubert, Meister et al. 2008). As used herein the term “plasma cell” will refer to the following immunophenotype definition: Plasma cells were defined as live CD19-negative, CD45R/B220-negative, CD138-positive, CD38-positive events for the MRL/lpr model. A total of 200,000-500,000 events were collected per tube/sample. Insufficient sample limited plasma cell determination in bone marrow. […]

pSTAT3 = assay: Pharmacodynamic kidney pSTAT3 (JAK2 inhibition marker) in NZM mice; settings: vs vehicle or CTX, p<0.01
Description: Age mated, female, NZM or NZW/LacJ, mice were matured for the study of lupus nephritis for a total of 7 months or 210 days at which time urine was collected for proteinuria detection. Mice with 0.5-1.0 mg/ml of urine protein as determined by an optical density-based total protein precipitation assay and cross-checked for 30-300 mg/dl of protein as determined by a stick assay were considered proteinuria positive and selected for study entry. Groups were normalized to contain a Gaussian distribution of proteinuria positive animals (i.e., ⅓ low proteinuria, ⅓ medium, ⅓ high) then randomized between groups before ear marking and taking baseline measures including urine and serum collections. A total of five mice from the total population were randomly selected for baseline kidney histology evaluation. Treatments and tests for each group are as described in FIG. 12. Briefly, with a minimum of 10 mice per group, COMPOUND A was administered at 100 mg/kg or 55 mg/kg, both twice a day and orally. […] Vehicle included 3% DMSO, 10% Solutol and 87% PBS. […] End-stage lupus nephritis was evaluated by histopathology and scored by a board certified pathologist for the assessment of total renal damage in diseased animals using the scoring method described by Smith et al (Smith, Dong et al. 2007). […] Day-98 or “end of treatment/study” represents 310 days of age for the NZM animals.

IL-6 = assay: Serum IL-6 in NZM mice
Description: For the processing of serum samples for cytokine analysis, frozen plasma at −80° C. was thawed on ice, vortexed, and centrifuged for 10 minutes to remove debris and aggregates. A total of 25-50 μL of serum was used for Luminex® assays following the manufacturer's instructions. Ten different mouse cytokines were measured using the mouse cytokine 10-plex bead kit (Invitrogen, Carlsbad, Calif., no. LMC0001). Briefly, filter plates (Millipore, Billerica, Mass., no. MAIPSWU10), were pre-wet with 200 μL of wash solution (kit component) and 25 μL of beads were added per well. […]
Age mated, female, NZM or NZW/LacJ, mice were matured for the study of lupus nephritis for a total of 7 months or 210 days at which time urine was collected for proteinuria detection. Mice with 0.5-1.0 mg/ml of urine protein as determined by an optical density-based total protein precipitation assay and cross-checked for 30-300 mg/dl of protein as determined by a stick assay were considered proteinuria positive and selected for study entry. […] End-stage lupus nephritis was evaluated by histopathology and scored by a board certified pathologist for the assessment of total renal damage in diseased animals using the scoring method described by Smith et al (Smith, Dong et al. 2007). […]

Q: How did the “spleen mass decrease vs. vehicle” value (MRL/lpr mice; 55 mg/kg p.o. b.i.d.) turn out when CN1CCN(c2cccc(Nc3nc4c(-c5ccc(S(C)(=O)=O)cc5)cccn4n3)c2)CC1 [COMPOUND A, [8-(4-methanesulfonyl-phenyl)-[1,2,4]triazolo[1,5-a]pyridin-2-yl]-[3-(4-methyl-piperazin-1-yl)-phenyl]-amine] was run?
A: 49.4%

Q: What about the “total spleen leukocyte counts compared to vehicle” value (MRL/lpr mice; 55 mg/kg p.o. b.i.d.) of the same compound?
A: reduced total leukocyte counts

Q: What about the mice without lymphomegaly (MRL/lpr mice; 55 mg/kg p.o. b.i.d.) of the same compound?
A: 100%

Q: What about the “spleen mass decrease vs. vehicle” value (MRL/lpr mice; 100 mg/kg p.o. b.i.d.) of the same compound?
A: 74.1%

Q: What about the “spleen mass relative to non-lupus control animal (MRL/Mp; 98 mg)” value (MRL/lpr mice; 100 mg/kg p.o. b.i.d.) of the same compound?
A: decreased spleen mass to the level of a non-lupus control animal

Q: And the “total spleen leukocyte counts compared to vehicle” value (MRL/lpr mice; 100 mg/kg p.o. b.i.d.)?
A: reduced total leukocyte counts

Q: What about the mice without lymphomegaly (MRL/lpr mice; 100 mg/kg p.o. b.i.d.) of the same compound?
A: 100%

Q: And the “spleen plasma cells decrease vs vehicle” value (plasma cells)?
A: 65.5%

Q: And the “levels of pSTAT3 in the kidneys” value (pSTAT3)?
A: significantly lower

Q: What about the “serum IL-6 decrease compared to vehicle” value (IL-6; 55 mg/kg) of the same compound?
A: 98.2%

Q: What about the “serum IL-6 decrease compared to vehicle” value (IL-6; 100 mg/kg) of the same compound?
A: 97.0%
